Experimental data published in patent publication US9575064B2, “Methods relating to testing for lysosomal storage disorders” (PerkinElmer Health Sciences, Inc., priority 2014, dated 2017).

Legend:
[1] = molecular target: T1, galactocerebrosidase (GALC) (Homo sapiens, UniProt P54803); assay: 6-plex DBS enzyme activity assay (FIA-MS/MS) with and without sodium oleate: GALC; type: biochemical; parameters: from tissue; host or cells: human dried blood spots (CDC control DBS: pooled cord blood, leukocyte-reduced adult blood)
T1 sequence (P54803 43-685): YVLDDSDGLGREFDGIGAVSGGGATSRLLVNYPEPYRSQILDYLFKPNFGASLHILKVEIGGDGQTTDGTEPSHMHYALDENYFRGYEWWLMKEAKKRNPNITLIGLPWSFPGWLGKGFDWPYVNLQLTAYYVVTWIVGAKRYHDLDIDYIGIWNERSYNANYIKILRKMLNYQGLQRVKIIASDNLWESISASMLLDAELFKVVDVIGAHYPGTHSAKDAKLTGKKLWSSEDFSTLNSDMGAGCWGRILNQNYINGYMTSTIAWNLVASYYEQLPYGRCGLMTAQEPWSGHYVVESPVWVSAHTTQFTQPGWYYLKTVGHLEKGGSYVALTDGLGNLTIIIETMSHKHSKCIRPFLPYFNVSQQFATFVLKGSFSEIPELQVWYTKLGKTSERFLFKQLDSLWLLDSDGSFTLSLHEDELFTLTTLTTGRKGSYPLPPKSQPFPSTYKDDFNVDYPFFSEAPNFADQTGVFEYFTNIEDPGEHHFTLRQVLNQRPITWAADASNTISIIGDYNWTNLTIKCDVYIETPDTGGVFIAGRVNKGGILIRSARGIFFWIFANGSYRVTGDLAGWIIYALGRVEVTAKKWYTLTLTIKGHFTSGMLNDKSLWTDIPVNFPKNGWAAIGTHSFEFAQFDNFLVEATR

α-L-iduronidase (IDUA) = molecular target: T2, α-L-iduronidase (IDUA) (Homo sapiens, UniProt P35475); assay: 6-plex DBS enzyme activity assay (FIA-MS/MS) with and without sodium oleate: IDUA; type: biochemical
T2 construct: from tissue; host or cells: human dried blood spots (CDC control DBS: pooled cord blood, leukocyte-reduced adult blood)
T2 sequence (P35475 28-653): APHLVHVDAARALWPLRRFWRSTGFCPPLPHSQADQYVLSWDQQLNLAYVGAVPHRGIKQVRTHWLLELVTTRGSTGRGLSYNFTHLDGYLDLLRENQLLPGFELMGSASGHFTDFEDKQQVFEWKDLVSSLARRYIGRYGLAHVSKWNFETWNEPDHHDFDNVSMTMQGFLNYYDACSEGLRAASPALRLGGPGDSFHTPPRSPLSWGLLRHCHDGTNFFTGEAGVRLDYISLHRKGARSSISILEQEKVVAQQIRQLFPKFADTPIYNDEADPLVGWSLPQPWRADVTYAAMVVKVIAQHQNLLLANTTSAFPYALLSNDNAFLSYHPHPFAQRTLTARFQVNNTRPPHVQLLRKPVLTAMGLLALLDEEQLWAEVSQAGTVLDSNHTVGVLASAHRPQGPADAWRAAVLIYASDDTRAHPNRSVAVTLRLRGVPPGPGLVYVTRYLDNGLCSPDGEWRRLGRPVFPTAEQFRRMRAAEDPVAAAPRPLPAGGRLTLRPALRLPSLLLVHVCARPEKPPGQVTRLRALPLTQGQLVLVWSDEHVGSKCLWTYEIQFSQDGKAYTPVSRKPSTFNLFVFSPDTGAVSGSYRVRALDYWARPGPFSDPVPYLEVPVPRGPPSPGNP

[2] = molecular target: T3, acid α-galactosidase A (GLA) (Homo sapiens, UniProt P06280); assay: 6-plex DBS enzyme activity assay (FIA-MS/MS) with and without sodium oleate: GLA; type: biochemical
T3 construct: from tissue; host or cells: human dried blood spots (CDC control DBS: pooled cord blood, leukocyte-reduced adult blood)
T3 sequence (P06280 32-429): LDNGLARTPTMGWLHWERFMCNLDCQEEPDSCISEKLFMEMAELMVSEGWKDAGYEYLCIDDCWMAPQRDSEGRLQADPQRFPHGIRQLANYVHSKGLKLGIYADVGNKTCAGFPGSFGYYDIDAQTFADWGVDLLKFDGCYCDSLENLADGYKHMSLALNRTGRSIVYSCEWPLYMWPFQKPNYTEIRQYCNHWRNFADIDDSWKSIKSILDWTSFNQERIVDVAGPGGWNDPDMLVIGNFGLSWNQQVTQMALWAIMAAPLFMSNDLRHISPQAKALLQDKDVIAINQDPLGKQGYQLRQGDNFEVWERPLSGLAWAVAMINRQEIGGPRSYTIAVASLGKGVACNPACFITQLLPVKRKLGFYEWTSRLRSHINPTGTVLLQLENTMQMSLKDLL

[3] = molecular target: T4, acid β-glucocerebrosidase (ABG) (Homo sapiens, UniProt P04062); assay: 6-plex DBS enzyme activity assay (FIA-MS/MS) with and without sodium oleate: ABG; type: biochemical
T4 construct: from tissue; host or cells: human dried blood spots (CDC control DBS: pooled cord blood, leukocyte-reduced adult blood)
T4 sequence (P04062 40-536): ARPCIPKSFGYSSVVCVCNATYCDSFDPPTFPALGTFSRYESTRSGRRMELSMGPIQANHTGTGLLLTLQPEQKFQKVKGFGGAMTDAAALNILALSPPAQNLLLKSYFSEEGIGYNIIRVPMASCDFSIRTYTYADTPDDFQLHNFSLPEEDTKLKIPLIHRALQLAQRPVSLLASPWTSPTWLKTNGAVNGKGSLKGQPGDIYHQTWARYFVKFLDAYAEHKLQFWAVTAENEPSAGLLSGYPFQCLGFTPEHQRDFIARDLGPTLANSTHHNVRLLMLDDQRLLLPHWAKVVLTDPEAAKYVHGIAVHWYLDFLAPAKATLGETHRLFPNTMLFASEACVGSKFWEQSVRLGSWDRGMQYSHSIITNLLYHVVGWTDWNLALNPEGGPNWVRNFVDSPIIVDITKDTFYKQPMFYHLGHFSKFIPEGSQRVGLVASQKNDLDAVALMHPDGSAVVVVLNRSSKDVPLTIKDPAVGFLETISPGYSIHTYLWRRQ

[4] = molecular target: T5, acid sphingomylenase (ASM) (Homo sapiens, UniProt P17405); assay: 6-plex DBS enzyme activity assay (FIA-MS/MS) with and without sodium oleate: ASM; type: biochemical
T5 construct: from tissue; host or cells: human dried blood spots (CDC control DBS: pooled cord blood, leukocyte-reduced adult blood)
T5 sequence (P17405 47-631): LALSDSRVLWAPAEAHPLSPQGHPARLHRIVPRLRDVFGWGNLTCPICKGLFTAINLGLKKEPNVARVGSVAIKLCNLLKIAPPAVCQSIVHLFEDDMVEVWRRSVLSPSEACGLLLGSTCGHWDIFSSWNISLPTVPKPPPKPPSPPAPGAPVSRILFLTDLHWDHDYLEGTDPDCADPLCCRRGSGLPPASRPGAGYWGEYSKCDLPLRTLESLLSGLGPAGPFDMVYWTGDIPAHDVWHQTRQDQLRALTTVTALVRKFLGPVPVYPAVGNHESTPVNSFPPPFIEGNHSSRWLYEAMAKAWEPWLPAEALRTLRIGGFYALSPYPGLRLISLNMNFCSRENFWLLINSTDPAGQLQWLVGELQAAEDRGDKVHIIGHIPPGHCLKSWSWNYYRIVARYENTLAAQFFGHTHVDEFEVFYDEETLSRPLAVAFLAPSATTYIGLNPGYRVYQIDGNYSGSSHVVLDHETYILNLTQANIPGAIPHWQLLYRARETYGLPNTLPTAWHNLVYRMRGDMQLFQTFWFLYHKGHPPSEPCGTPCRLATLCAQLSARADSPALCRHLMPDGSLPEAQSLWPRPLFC

acid α-glucosidase (GAA) = molecular target: T6, acid α-glucosidase (GAA) (Homo sapiens, UniProt P10253); assay: 6-plex DBS enzyme activity assay (FIA-MS/MS) with and without sodium oleate: GAA; type: biochemical
T6 construct: from tissue; host or cells: human dried blood spots (CDC control DBS: pooled cord blood, leukocyte-reduced adult blood)

[5] = cited from earlier work
[6] = molecular target: T1, galactocerebrosidase (GALC); conditions: Zhang et al; Li et al; cited from earlier work
[7] = CDC High Control DBS, with sodium oleate
[8] = CDC High Control DBS, with vs without sodium oleate
[9] = CDC Low Control DBS, with sodium oleate
[10] = CDC Low Control DBS, with vs without sodium oleate
[11] = CDC Medium Control DBS, with sodium oleate
[12] = CDC Medium Control DBS, with vs without sodium oleate
[13] = Med/Low Control DBS ratio, with vs without sodium oleate
[14] = addition of sodium oleate, stated for the ceramides
[15] = two assays differing only by addition or lack of sodium oleate

For `CCCCCCCC/C=C\CCCCCCCC(=O)[O-].[Na+]` [sodium oleate], the “Enzyme Activity GALC” value [1, 7] was 6.72 µmol/L/h, the “Sodium oleate gain GALC” value [1, 8] was 126% and the “Enzyme Activity GALC” value [1, 9] was 0.45 µmol/L/h. The “Sodium oleate gain GALC” value [1, 10] was 118%, the “Enzyme Activity GALC” value [1, 11] was 3.22 µmol/L/h and the “Sodium oleate gain GALC” value [1, 12] was 133%. For the same compound, the “Sodium oleate gain of Med/Low ratio GALC” value [1, 13] was 117%, the “widening of the gap between Low Control DBS and Medium Control DBS, GALC” value [1, 14] was “approximately 25%” and the “enzyme activity GALC when sodium oleate was present” value [1, 15] was “improved”. For the same compound, the “CDC Med/Low Control DBS activity ratio GALC” value ([1]; with sodium oleate) was 7.1, the “Enzyme Activity IDUA” value (α-L-iduronidase (IDUA); [7]) was 11.95 µmol/L/h and the “Sodium oleate gain IDUA” value (α-L-iduronidase (IDUA); [8]) was 111%. For the same compound, the “Enzyme Activity IDUA” value (α-L-iduronidase (IDUA); [9]) was 0.72 µmol/L/h, the “Sodium oleate gain IDUA” value (α-L-iduronidase (IDUA); [10]) was 107% and the “Enzyme Activity IDUA” value (α-L-iduronidase (IDUA); [11]) was 5.86 µmol/L/h. For the same compound, the “Sodium oleate gain IDUA” value (α-L-iduronidase (IDUA); [12]) was 116%, the “Sodium oleate gain of Med/Low ratio IDUA” value (α-L-iduronidase (IDUA); [13]) was 114% and the “CDC Med/Low Control DBS activity ratio IDUA” value (α-L-iduronidase (IDUA); with sodium oleate) was 8.1. For the same compound, the “Enzyme Activity GLA” value [2, 7] was 13.15 µmol/L/h, the “Sodium oleate gain GLA” value [2, 8] was 104% and the “Enzyme Activity GLA” value [2, 9] was 1.00 µmol/L/h. The “Sodium oleate gain GLA” value [2, 10] was 95%, the “Enzyme Activity GLA” value [2, 11] was 6.57 µmol/L/h and the “Sodium oleate gain GLA” value [2, 12] was 106%. The “Sodium oleate gain of Med/Low ratio GLA” value [2, 13] was 114%, the “CDC Med/Low Control DBS activity ratio GLA” value ([2]; with sodium oleate) was 6.5 and the “Enzyme Activity ABG” value [3, 7] was 11.46 µmol/L/h. The “Sodium oleate gain ABG” value [3, 8] was 162%, the “Enzyme Activity ABG” value [3, 9] was 0.95 µmol/L/h and the “Sodium oleate gain ABG” value [3, 10] was 159%. The “Enzyme Activity ABG” value [3, 11] was 5.44 µmol/L/h, the “Sodium oleate gain ABG” value [3, 12] was 175% and the “Sodium oleate gain of Med/Low ratio ABG” value [3, 13] was 120%. The “widening of the gap between Low Control DBS and Medium Control DBS, ABG” value [3, 14] was “approximately 25%”, the “enzyme activity ABG when sodium oleate was present” value [3, 15] was “improved” and the “CDC Med/Low Control DBS activity ratio ABG” value ([3]; with sodium oleate) was 5.8. The “Enzyme Activity ASM” value [4, 7] was 2.54 µmol/L/h, the “Sodium oleate gain ASM” value [4, 8] was 117% and the “Enzyme Activity ASM” value [4, 9] was 0.16 µmol/L/h. For the same compound, the “Sodium oleate gain ASM” value [4, 10] was 95%, the “Enzyme Activity ASM” value [4, 11] was 1.29 µmol/L/h and the “Sodium oleate gain ASM” value [4, 12] was 122%. The “Sodium oleate gain of Med/Low ratio ASM” value [4, 13] was 136%, the “widening of the gap between Low Control DBS and Medium Control DBS, ASM” value [4, 14] was “approximately 25%” and the “enzyme activity ASM when sodium oleate was present” value [4, 15] was “improved”. The “CDC Med/Low Control DBS activity ratio ASM” value ([4]; with sodium oleate) was 8.0, the “Enzyme Activity GAA” value (acid α-glucosidase (GAA); [7]) was 13.48 µmol/L/h and the “Sodium oleate gain GAA” value (acid α-glucosidase (GAA); [8]) was 110%. For the same compound, the “Enzyme Activity GAA” value (acid α-glucosidase (GAA); [9]) was 0.99 µmol/L/h, the “Sodium oleate gain GAA” value (acid α-glucosidase (GAA); [10]) was 105% and the “Enzyme Activity GAA” value (acid α-glucosidase (GAA); [11]) was 7.08 µmol/L/h. For the same compound, the “Sodium oleate gain GAA” value (acid α-glucosidase (GAA); [12]) was 115%, the “Sodium oleate gain of Med/Low ratio GAA” value (acid α-glucosidase (GAA); [13]) was 115% and the “CDC Med/Low Control DBS activity ratio GAA” value (acid α-glucosidase (GAA); with sodium oleate) was 7.2.

In the case of `CCCCCCCC/C=C\CCCCCCCC(=O)O` [oleic acid], the “solubility in aqueous buffers” value [5] is given as “very difficult to dissolve” and the “effect on GALC enzyme” value [6] is given as “enhancer”.
